# In patent publication US10059655B2, “Lipids and lipid compositions for the delivery of active agents” (priority 2013, dated 2018):
# Experiment: Measurement of mRNA encapsulation in lipid nanoparticles (Quant-iT Ribogreen)
# Type: physicochemical
# Details: Leptin mRNA in LNP
# Procedure: All equipment and disposable supplies are certified free of RNase activity by the manufacturer or rendered RNase free by use of the RNaseZap reagent (LifeTechnologies). mRNA is encapsulated at a cationic lipid amine to mRNA phosphate (N:P) molar ratio of 4:1. Lipids (cationic lipid, DSPC, cholesterol and lipidated PEG or stealth lipid) are dissolved in ethanol. The molar ratios are 40:10:38:2, respectively. The mixture is sonicated briefly, then gently agitated for 5 minutes and then maintained at 37° C. until use. mRNA is exchanged into citrate buffer pH 5.8-6.0 by use of Amicon Ultra-15 centrifugal concentrators, and the final concentration is adjusted to 0.5 mg/ml and held at 37° C. until use. An equal volume of lipids in ethanol, mRNA in citrate buffer, and citrate buffer alone are drawn into disposable syringes.
# Tubing leading from syringes containing lipids and mRNA are attached to the T junction, and tubing leading from the syringe containing citrate buffer alone is paired with the tubing exiting the T-junction over a collection vessel containing a stir bar on an active stir plate. Syringes are placed in a syringe pump set to expel contents at a flow rate of 1 ml per minute. The pump is activated, and the collected mRNA in lipid nanoparticles is transferred to SnakeSkin dialysis tubing (10,000 MWCO, Thermo Scientific). Material is dialyzed against RNAse- and pyrogen-free 1× phosphate buffered saline overnight at 4° C.
# Percent encapsulation of mRNA in lipid nanoparticles is determined using the Quant-iT Ribogreen RNA Assay kit (Life Technologies). The LNP-mRNA suspension is assayed in buffer (mRNA outside the particle), and buffer plus Triton X-100 detergent (total mRNA). The difference calculated is the mRNA inside the particle. Prepare a 1000 ng/mL stock from the RNA provided in the kit and use this to generate a standard curve (0 ng/ml, 15.63-1000 ng/ml) in TE and TE+0.75% Triton X-100. Prepare LNP-mRNA samples in TE buffer and TE buffer+0.75% Triton X-100 with appropriate dilution so that reading is in the range of standard curve (400-2,000 fold). In a 384-well plate (Costar non-treated #3573) add 0.04 ml of standard (in duplicate) or sample (in triplicate) per well. Dilute Ribogreen reagent 240-fold in TE buffer and add 0.06 ml per well. Mix contents of wells and measure fluorescence (excitation=480 nm, emission=520 nm). Subtract background values (no RNA) from standard and test sample values and determine the concentrations of RNA in the samples using the standard curves. Determine the percent encapsulation of the sample by dividing the difference in concentrations between sample+triton and sample in buffer alone by the sample+triton concentration.
row,SMILES,% encapsulation mRNA Leptin [%]
1,"CCCCCCCCCCCCCCCC(=O)OCC(COC(=O)CCC(OCCCCCCCC)OCCCCCCCC)COC(=O)C1CCN(C)C1 (centres unmarked) [Example 67, 3-((4,4-bis(octyloxy)butanoyl)oxy)-2-((palmitoyloxy)methyl)propyl 1-methylpyrrolidine-3-carboxylate]",62.8
2,"CCCCC/C=C\C/C=C\CCCCCCCC(=O)OCC(COC(=O)CCCCCCC/C=C\C/C=C\CCCCC)COC(=O)CCCN1CCCC1 [Example 3, (9Z,9′Z,12Z,12′Z)-2-(((4-(pyrrolidin-1-yl)butanoyl)oxy)methyl)propane-1,3-diyl bis(octadeca-9,12-dienoate)]",32.5
3,"CCCCC/C=C\C/C=C\CCCCCCCC(=O)OCC(COC(=O)CCC(OCCCCCCCC)OCCCCCCCC)COC(=O)[C@@H]1CCCN1C (stereo partly drawn) [Example 37, (2S)-3-((4,4-bis(octyloxy)butanoyl)oxy)-2-(((9Z,12Z)-octadeca-9,12-dienoyloxy)methyl)propyl 1-methylpyrrolidine-2-carboxylate]",14.3
4,"CCCCCCCCOC(CCC(=O)OCC(COC(=O)CCC(OCCCCCCCC)OCCCCCCCC)COC(=O)CCN(C)C)OCCCCCCCC [Example 59, 2-(((3-(dimethylamino)propanoyl)oxy)methyl)propane-1,3-diyl bis(4,4-bis(octyloxy)butanoate)]",76.6
5,"CCCCC/C=C\C/C=C\CCCCCCCC(=O)OCC(COC(=O)CCC(OCCCCCCCC)OCCCCCCCC)COC(=O)OC1CCN(C)C1 (centres unmarked) [Example 47, (9Z,12Z)-3-((4,4-bis(octyloxy)butanoyl)oxy)-2-(((((1-methylpyrrolidin-3-yl)oxy)carbonyl)oxy)methyl)propyl octadeca-9,12-dienoate]",90.4
6,"CCCCCCCCOC(CCC(=O)OCC(COC(=O)CCC(OCCCCCCCC)OCCCCCCCC)COC(=O)C1CCN(C)C1)OCCCCCCCC (centres unmarked) [Example 57, 2-(((1-methylpyrrolidine-3-carbonyl)oxy)methyl)propane-1,3-diyl bis(4,4-bis(octyloxy)butanoate)]",95.2
7,"CCCC(CCC)COC(CCCCC(=O)OCC(COC(=O)CCCCCCC(=O)OC)COC(=O)C1(C)CCN(C)CC1)OCC(CCC)CCC (centres unmarked) [Example 72, 1-(3-((6,6-bis((2-propylpentyl)oxy)hexanoyl)oxy)-2-(((1,4-dimethylpiperidine-4-carbonyl)oxy)methyl)propyl) 8-methyl octanedioate]",31.2
8,"CCCCC/C=C\C/C=C\CCCCCCCC(=O)OCC(COC(=O)CCC(OCCCCCCCC)OCCCCCCCC)COC(=O)OC1CN(C)C1 (centres unmarked) [Example 49, (9Z,12Z)-3-((4,4-bis(octyloxy)butanoyl)oxy)-2-(((((1-methylazetidin-3-yl)oxy)carbonyl)oxy)methyl)propyl octadeca-9,12-dienoate]",82.8
9,"CCCCC/C=C\C/C=C\CCCCCCCC(=O)OCC(COC(=O)CCC(OCCCCCCCC)OCCCCCCCC)COC(=O)C1CN(C)CCO1 (centres unmarked) [Example 39, 3-((4,4-bis(octyloxy)butanoyl)oxy)-2-(((9Z,12Z)-octadeca-9,12-dienoyloxy)methyl)propyl 4-methylmorpholine-2-carboxylate]",10.0
10,"CCCCCCCCOC(=O)CCCCCCCCC(=O)OCC(COC(=O)CCC(OCCCCCCCC)OCCCCCCCC)COC(=O)C1CCN(C)C1 (centres unmarked) [Example 69, 1-(3-((4,4-bis(octyloxy)butanoyl)oxy)-2-(((1-methylpyrrolidine-3-carbonyl)oxy)methyl)propyl) 10-octyl decanedioate]",79.3
11,"CCCCCCCCCCCCC(CCOC(=O)OCC(COC(=O)CCCCCCC(=O)OC)COC(=O)CCCCCCC(=O)OC)OC(=O)OCCCN(C)C (centres unmarked) [Example 74, O′1,O1-(2-(7-dodecyl-14-methyl-3,9-dioxo-2,4,8,10-tetraoxa-14-azapentadecyl)propane-1,3-diyl) 8-dimethyl dioctanedioate]",23.0
12,"CCCCCCCCCCCCCCCC(=O)OCC(COC(=O)CCCCC(COC(=O)CCCCCCC)COC(=O)CCCCCCC)COC(=O)C1CCN(C)C1 (centres unmarked) [Example 63, 2-(5-(3-((1-methylpyrrolidine-3-carbonyl)oxy)-2-((palmitoyloxy)methyl)propoxy)-5-oxopentyl)propane-1,3-diyl dioctanoate]",18.8
13,"CCCCC/C=C\C/C=C\CCCCCCCC(=O)OCC(COC(=O)CCCCC(OCCCCCCCC)OCCCCCCCC)COC(=O)OCCCN(CC)CC (centres unmarked) [Example 27, (9Z,12Z)-3-((6,6-bis(octyloxy)hexanoyl)oxy)-2-((((3-(diethylamino)propoxy)carbonyl)oxy)methyl)propyl octadeca-9,12-dienoate]",80.8
14,"CCCCCCCCCCCCCC(=O)OCC(COC(=O)CCC(OCCCCCCCC)OCCCCCCCC)COC(=O)C1CCN(C)C1 (centres unmarked) [Example 66, 3-((4,4-bis(octyloxy)butanoyl)oxy)-2-((tetradecanoyloxy)methyl)propyl 1-methylpyrrolidine-3-carboxylate]",70.5
